Results published in patent US10085955B2, “Methods and compositions for treatment of demyelinating diseases” (Pathologica LLC, priority 2013, dated 2018).
Entries after “also recorded” stand apart in the source; their conditions may differ.

How the values were obtained:
[1] = Rhesus macaque single-dose pharmacokinetics; format: in vivo, rhesus monkeys; details: plasma, mean
Experimental: Two groups of three male rhesus monkeys were fasted overnight before being administered the test article, MGBG, as either a single bolus intravenous dose of 1 mg/kg (Group 1) or as a single oral gavage dose of 10 mg/kg (Group 2). Dose formulation analysis verified administered dose solutions as within 14% of targeted concentrations of 1 and 10 mg/kg for Groups 1 and 2, respectively.
Blood samples were collected into tubes containing lithium heparin from the femoral vein/artery (approximately 1.0 mL) for plasma MGBG concentration measurement from all intravenously dosed animals prior to dosing and at approximately T=0.083 (5 min), 0.25 (15 min), 0.5 (30 min), 1, 2, 4, 8, and 24 hours after dosing. Blood samples for plasma MGBG concentration measurement were collected from all orally dosed animals prior to dosing at approximately T=1, 2, 4, 8, 12, 24, and 36 hours after dosing. Food was also withheld through the first four hours of blood sample collection.
The samples were centrifuged under refrigerated conditions following completion of sample collection at each interval. The resulting plasma was separated and stored frozen at approximately −70° C. until analysis.
PK analysis was performed on the individual plasma concentration-time profiles for MGBG using the WinNonlin non-compartmental approach (linear trapezoidal rule for AUC calculations). Nominal dose values and sampling times were used for calculations. All MGBG plasma concentration measurements reported as BQL (<2.51 ng/mL) were set equal to zero for the purpose of analysis. Following IV and PO administration of MGBG, plasma PK disposition parameters were calculated using the WinNonlin default selection criteria for the selection of the Lambda Z.
Consequently, a model-dependent two-compartmental analysis was used to calculate bioavailability.

in vivo = test: in vivo; set-up: species or system Sprague Dawley rats; details: rat
Experimental: Eighteen male Sprague Dawley rats (Charles River) weighing 217-263 g and aged 8-9 weeks were administered the test article, MGBG as either a single bolus intravenous dose of 1 mg/kg (Group 1) or as a single oral gavage dose of 10 mg/kg. A cohort of three animals was sacrificed via CO2 inhalation anesthesia after final blood collection at each of T=2, 4, 12, 24, 36, and 48 hours post-dose. Dose formulation analysis verified administered dose solutions as within 17% of targeted concentration of 10 mg/kg.
Analysis was performed by LC/MS/MS. Pharmacokinetic analyses were performed on the mean MGBG plasma concentration versus time data using the non-compartmental approach (linear trapezoidal rule for AUC calculations). The WinNonlin sparse sampling tool was used for PK calculations. All samples reported as BLQ (Below the Limit of Quantitation, in plasma 2.50 ng/mL) were changed to 0.00 ng/mL for the purpose of analysis.
Additionally, in rats dosed as above with single oral administration of MGBG at 10 mg/kg, immediately following the plasma sample collection for each cohort (i.e., 2, 4, 12, 24, 36, and 48 hours after dosing), three rats were sacrificed, and spleen and liver tissues collected and flask frozen. […] This is consistent with a selective uptake mechanism for MGBG. Without wishing to be bound by theory, other SAMDC inhibitors which are selectively uptaken by cells may, like MGBG, be useful in the methods and compositions disclosed herein.

[2] = test system: MOG-induced experimental autoimmune encephalomyelitis (EAE); test: Second MOG EAE protocol, clinical readouts; format: in vivo, C57BL/6 mice; details: second study; MGBG 30 mpk BID, fingolimod 1 mpk QD
Description: An experimental murine model of multiple sclerosis employing a myelin oligodendrocyte glycoprotein (MOG) peptide to induce experimental autoimmune encephalomyelitis (EAE) was employed to determine the efficacy of MGBG in preventing and treating that disease. Because of its many similarities to MS, EAE is commonly used to study pathogenesis of autoimmunity, CNS inflammation, demyelination, cell trafficking, and tolerance induction. EAE is characterized by paralysis (in some models the paralysis is remitting-relapsing), CNS inflammation and demyelination. EAE is mediated primarily by dendritic cells, myelin-specific T cells (e.g. Th1 and Th17), and M1 macrophages. B cells may also play a role in some models of EAE. Body weight also tracks disease progression. EAE is induced in C57BL/6 mice by immunization with MOG35-55 or MOG1-125 in CFA emulsion followed by administration of pertussis toxin (PTX) in PBS. The emulsion provides antigen which initiates expansion and differentiation of MOG-specific autoimmune T cells. PTX enhances EAE development by providing additional adjuvant and facilitating entrance of autoimmune T cells into the CNS. […]
Clinically, EAE progression is scored on a scale of 0 to 5, wherein each score represents the following clinical observations: […]

[3] = oral gavage 10 mg/kg single dose
[4] = male, Sprague Dawley, iv, 1 mg/kg
[5] = male, Sprague Dawley, po, 10 mg/kg

With `CC(/C=N/NC(=N)N)=N\NC(=N)N` [MGBG, 1,1′ [methylethanediylidene]dinitrilodiguanidine] as the compound, how does the Clobs ([1]; IV 1 mg/kg single bolus) read?
Its Clobs is 13.7 mL/min/kg.

What about the VSSobs ([1]; IV 1 mg/kg single bolus) of the same compound?
The VSSobs was 13.2 L/kg.

And the Clobs [1, 3]?
The Clobs was 6.63 mL/min/kg.

What about the Vd [1, 3] of the same compound?
The Vd was 13.2 L/kg.

What about the Clobs (in vivo; [4]) of the same compound?
The Clobs was 13.4 mL/min/kg.

And the VSSobs (in vivo; [4])?
The VSSobs was 15.4 L/kg.

And the Clobs (in vivo; [5])?
Its Clobs is 3.18 mL/min/kg.

And the Vd (in vivo; [5])?
The Vd was 15.4 L/kg.

And the “time point through which MGBG levels were measurable in plasma” value (in vivo; [5])?
The value was 12 h.

And the Kp (in vivo; male, Sprague Dawley, po, 10 mg/kg, greater exposure (AUCall) of liver tissue compared to plasma)?
Its Kp is 160.

What about the Kp (in vivo; male, Sprague Dawley, po, 10 mg/kg, greater exposure (AUCall) of spleen tissue compared to plasma) of the same compound?
The Kp was 9.3.

What about the Kp (in vivo; male, Sprague Dawley, po, 10 mg/kg, greater exposure (Cmax) of liver tissue compared to plasma) of the same compound?
The Kp was 120.

And the Kp (in vivo; male, Sprague Dawley, po, 10 mg/kg, greater exposure (Cmax) of spleen tissue compared to plasma)?
The Kp was 4.

And the “clinical findings after dosing” value (in vivo)?
The value was “Abnormal clinical findings were not noted”.

What about the “EAE disease development / severity” value [2] of the same compound?
The value was “suppressed EAE comparably to 1 mpk fingolimod; also recorded: substantially reduced disease compared to that of the vehicle group; also recorded: efficacious at postponing disease onset and reducing EAE severity”.
